Paper PMC10630888, “Nuclear ERK1/2 signaling potentiation enhances neuroprotection and cognition via Importinα1/KPNA2” (EMBO Molecular Medicine, 2023)
Where “and” joins values, the source holds several entries; their conditions need not be identical. Equal entries are not always repeated.

System: p-ERK1/2 in CTIP2+ neurons
Test: p-ERK1/2 in CTIP2+ iPSC-derived HD MSNs
Assay type: cell-based, human
Settings: for p-ERK1/2 in CTIP2+ neurons (Fig 5 panel f): individual replicates
Protocol: The human induced pluripotent stem cell line CS09iHD109‐n1 (herein referred to as Q109N1) was originally generated from a human fibroblast line ND39258 (RRID:CVCL_ZC78) with an expanded HTT allele initially containing 109 pure CAG trinucleotides, and the isogenic control lines used were derived by CRISPR gene‐edit to reduce the CAG repeat length to 20 repeats (Mattis et al, [2015]). IPSCS were cultured on hESC‐qualified Matrigel (Corning) in E8‐Flex medium (Thermo Fisher) and passaged with RelesR (Stem Cell Technologies) according to the manufacturer's instructions. For neural differentiation iPSCS were grown to 70% confluency and then treated with 10 μM Y‐27632 (Tocris) for 1 h before harvesting by dissociation to a single cell suspension using accutase (Sigma). IPSCs were replated onto fresh Matrigel‐coated plates at a split ratio of 1:2, in E8‐Flex medium containing 10 μM Y‐27632. After overnight culture, IPSCs at 80–90% confluency were washed with PBS pH 7.4 (Gibco) and then switched to neural induction medium (Advanced DMEM/F12 (1:1) supplemented with 2 mM GlutamaxTM (Gibco), 2% Neurobrew without vitamin A (Miltenyi), 10 μM SB431542, 1 μM LDN 193189 (both Stem Cell Technologies), and 1.5 μM IWR1 (Tocris)). Medium was changed daily until day 8, when cells were passaged 1:2 by cell dissociation with Accutase for 5 min at 37°C and replated on Matrigel® coated plates in LIA medium containing (Advanced DMEM/F12 (1:1) supplemented with 2 mM GlutamaxTM, 2% Neurobrew without vitamin A, 0.2 μM LDN 193189, 1.5 μM IWR1, and 20 ng/ml Activin A (Peprotech)). At day 16, cells were plated for neuronal differentiation according to (Telezhkin et al, [2016]). […]
Images were acquired using a confocal microscope (Zeiss LSM710) under a 20× objective and analyzed with ImageJ software.

GRKKRRQRRRPPQGGGGGEPRRTEGVGPGVPGEVEMVKGQPFDV [RB5, six D-amino acids, acetylated N-terminus]
p-ERK1/2 in CTIP2+ neurons (Fig 5 panel f) (CTR iPSC-derived MSNs): 40.5874 and 43.5065 and 59.0476 and 55.7538 and 63.8384 and 58.6194 | p-ERK1/2 in CTIP2+ neurons (HD and isogenic control iPSC-derived MSNs, 50 μM, 30 min): induced ERK activation | p-ERK1/2 in CTIP2+ neurons (Fig 5 panel f) (HD iPSC-derived MSNs): 50.2062 and 59.3301 and 53.5036 and 55.8187 and 47.3002 and 65.1771
